Test results as given in US20090162413A1 (priority 1998, published 2009).

Experiment: release of zotarolimus from 15 mm BiodivYsio drug delivery stents (Example 5)
Type: physicochemical
Details: 15 mm BiodivYsio stents
Method: To load the stents with drug, a solution of zotarolimus in ethanol at a concentration of 50 mg/ml was prepared and dispensed into twelve vials. Twelve individual polymer-coated stents were placed on fixtures designed to hold the stent in a vertical position and the stents were immersed vertically in the drug solution for five minutes. The stents and fixtures were removed from the vials and excess drug solution was blotted away by contacting the stents with an absorbent material. The stents were then allowed to dry in air for 30 minutes in an inverted vertical position.
The stents were removed from the fixtures, and each stent was placed into 50/50 acetonitrile/phosphate buffer (pH 5.1, 2.0 ml) and sonicated for one hour. The stents were removed from the solution and solutions were assayed for concentration of drug, which allowed calculation of the amount of drug originally on the stents. This method was independently shown to remove at least 95% of the drug from the stent coating. On average, the stents included 120±9 micrograms of drug.
The drug-loaded stents were placed on the fixtures and placed into 0.01 M phosphate buffer (pH=6.0, 1.9 ml) in individual vials. These samples were placed onto a Eberbach shaker set at low speed to provide back-and-forth agitation. To avoid approaching drug saturation in the buffer, the stents were transferred periodically to fresh buffer vials at the following points: 15, 30, 45, 60, 120, 135, 150, 165, 180, 240, 390 minutes. The dissolution buffer vials were assayed by HPLC for the drug concentration at the end of the drug release period studied. The data, represented as % cumulative release of the drug as a function of time, is shown in tabular form below (Table 7): […]

CO[C@H]1C[C@@H]2CC[C@@H](C)[C@@](O)(O2)C(=O)C(=O)N2CCCC[C@H]2C(=O)O[C@H]([C@H](C)C[C@@H]2CC[C@H](n3cnnn3)[C@H](OC)C2)CC(=O)[C@H](C)/C=C(\C)[C@@H](O)[C@@H](OC)C(=O)[C@H](C)C[C@H](C)/C=C/C=C/C=C/1C [zotarolimus]
% Cumulative Release of Drug (0.01 M phosphate buffer pH 6.0, 15 min): 0.3% | % Cumulative Release of Drug (0.01 M phosphate buffer pH 6.0, 30 min): 1.1% | % Cumulative Release of Drug (0.01 M phosphate buffer pH 6.0, 45 min): 2.1% | % Cumulative Release of Drug (0.01 M phosphate buffer pH 6.0, 60 min): 3.2% | % Cumulative Release of Drug (0.01 M phosphate buffer pH 6.0, 120 min): 4.3% | % Cumulative Release of Drug (0.01 M phosphate buffer pH 6.0, 135 min): 5.9% | % Cumulative Release of Drug (0.01 M phosphate buffer pH 6.0, 150 min): 6.3% | % Cumulative Release of Drug (0.01 M phosphate buffer pH 6.0, 165 min): 6.8% | % Cumulative Release of Drug (0.01 M phosphate buffer pH 6.0, 180 min): 7.4% | % Cumulative Release of Drug (0.01 M phosphate buffer pH 6.0, 240 min): 10.8% | % Cumulative Release of Drug (0.01 M phosphate buffer pH 6.0, 390 min): 13.2%
